How the values were obtained:
Assay in all cases: single sensillum recording, Drosophila empty neuron (ab3A)
Type in all cases: cell-based
MsexOR33 = target: T1, MsexOR33 (Manduca sexta, UniProt A0A0P1J430); conditions: odor dilutions 10^-7 to 10^-2 v/v on filter paper, 500 ms pulse
T1 construct: gene OR-33; full-length CDS from antennal RNA, UAS transgene (pUASTattB) in D. melanogaster ab3A empty neuron (delta-halo; DmelOr22a-Gal4); partner is endogenous fly Orco; with Odorant receptor coreceptor (Drosophila melanogaster, endogenous to the ab3A neuron)
T1 sequence (A0A0P1J430 entry or part of it, one chain of several): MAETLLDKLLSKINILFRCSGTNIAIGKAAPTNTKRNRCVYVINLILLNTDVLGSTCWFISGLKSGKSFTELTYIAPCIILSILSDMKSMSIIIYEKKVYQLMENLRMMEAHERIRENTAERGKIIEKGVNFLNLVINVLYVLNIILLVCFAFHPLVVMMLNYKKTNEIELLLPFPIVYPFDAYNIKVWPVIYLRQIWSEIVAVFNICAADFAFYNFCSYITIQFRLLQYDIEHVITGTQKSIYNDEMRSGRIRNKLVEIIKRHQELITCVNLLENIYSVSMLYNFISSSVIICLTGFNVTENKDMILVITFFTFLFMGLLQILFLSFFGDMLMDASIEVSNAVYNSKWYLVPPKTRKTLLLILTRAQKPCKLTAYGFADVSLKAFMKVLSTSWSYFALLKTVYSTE

MsexOR8 = target: T2, MsexOR8 (Manduca sexta, UniProt A0A0P1IW06); conditions: odor dilutions 10^-7 to 10^-2 v/v on filter paper, 500 ms pulse
T2 construct: gene OR-8; full-length CDS from antennal RNA, UAS transgene (pUASTattB) in D. melanogaster ab3A empty neuron (delta-halo; DmelOr22a-Gal4); partner is endogenous fly Orco; with Odorant receptor coreceptor (Drosophila melanogaster, endogenous to the ab3A neuron)
T2 sequence (A0A0P1IW06 1-407): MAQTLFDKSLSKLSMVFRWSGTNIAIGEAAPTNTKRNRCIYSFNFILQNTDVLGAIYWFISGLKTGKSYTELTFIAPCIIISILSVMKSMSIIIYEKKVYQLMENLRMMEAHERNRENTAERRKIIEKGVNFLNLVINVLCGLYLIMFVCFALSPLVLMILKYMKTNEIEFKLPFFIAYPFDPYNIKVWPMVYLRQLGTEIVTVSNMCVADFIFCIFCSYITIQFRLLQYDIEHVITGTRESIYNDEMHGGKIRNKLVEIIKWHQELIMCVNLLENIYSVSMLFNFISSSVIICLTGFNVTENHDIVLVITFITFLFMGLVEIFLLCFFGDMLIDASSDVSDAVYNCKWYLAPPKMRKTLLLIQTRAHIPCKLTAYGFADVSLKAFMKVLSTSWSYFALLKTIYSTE
T2 sequence (Q9VNB5 1-486 partner): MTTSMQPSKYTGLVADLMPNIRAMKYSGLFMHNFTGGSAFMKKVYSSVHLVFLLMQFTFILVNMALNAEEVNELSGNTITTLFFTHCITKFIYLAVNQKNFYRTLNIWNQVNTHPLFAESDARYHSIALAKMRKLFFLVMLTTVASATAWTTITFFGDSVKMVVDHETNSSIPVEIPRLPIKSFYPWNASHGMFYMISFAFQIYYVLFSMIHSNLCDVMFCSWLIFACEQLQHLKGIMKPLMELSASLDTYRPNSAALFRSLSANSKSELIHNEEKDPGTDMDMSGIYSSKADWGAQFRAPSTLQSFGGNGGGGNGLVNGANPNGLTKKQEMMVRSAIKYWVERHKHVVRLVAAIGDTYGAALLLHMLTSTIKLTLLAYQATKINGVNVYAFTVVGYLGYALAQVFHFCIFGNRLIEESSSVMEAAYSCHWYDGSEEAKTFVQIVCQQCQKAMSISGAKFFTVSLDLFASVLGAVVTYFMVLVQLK

MsexOR36 = target: T3, MsexOR36 (Manduca sexta, UniProt A0A0P1IVT0); conditions: odor dilution 10^-2 v/v on filter paper, 500 ms pulse
T3 construct: gene OR-36; full-length CDS (407 aa) from antennal RNA, UAS transgene (pUASTattB) in D. melanogaster ab3A empty neuron (delta-halo; DmelOr22a-Gal4); partner is endogenous fly Orco; with Odorant receptor coreceptor (Drosophila melanogaster, endogenous to the ab3A neuron)
T3 sequence (A0A0P1IVT0 1-407): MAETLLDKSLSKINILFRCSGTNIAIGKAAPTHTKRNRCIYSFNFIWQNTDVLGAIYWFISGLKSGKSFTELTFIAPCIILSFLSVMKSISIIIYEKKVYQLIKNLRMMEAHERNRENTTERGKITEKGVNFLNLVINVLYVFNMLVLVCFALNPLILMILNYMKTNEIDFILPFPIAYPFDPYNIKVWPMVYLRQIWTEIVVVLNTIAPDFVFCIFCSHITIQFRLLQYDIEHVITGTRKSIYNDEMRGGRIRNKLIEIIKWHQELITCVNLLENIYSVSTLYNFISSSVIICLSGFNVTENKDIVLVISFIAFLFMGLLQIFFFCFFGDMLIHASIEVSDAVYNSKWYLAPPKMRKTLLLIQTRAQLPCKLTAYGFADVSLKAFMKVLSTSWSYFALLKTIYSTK
T3 sequence (Q9VNB5 1-486 partner): T2 sequence (Q9VNB5 1-486 partner)

CCCCCCCCC=O [nonanal]
single sensillum recording, Drosophila empty neuron (ab3A) (MsexOR33): each responding to only one odorant: MsexOR33 (nonanal) and MsexOR8 (propyl valerate)

CCCCC(=O)OCCC [propyl valerate]
single sensillum recording, Drosophila empty neuron (ab3A) (MsexOR8): each responding to only one odorant: MsexOR33 (nonanal) and MsexOR8 (propyl valerate)

C=CC(C)=CCC=C(C)C [β-ocimene]
single sensillum recording, Drosophila empty neuron (ab3A) (MsexOR36): β-ocimene, which was detected only by MsexOR36

Source: PMC11617253, “Gene expansion in the hawkmoth Manduca sexta drives evolution of food-associated odorant receptors” (iScience, 2024)
